Results: paper PMC9739695, “Water-Soluble Salts Based on Benzofuroxan Derivatives—Synthesis and Biological Activity” (International Journal of Molecular Sciences, 2022)
Read-outs that look alike come from different tables or passages of the source.

Tests used:
[1] = test system: bacterial microflora on barley seeds; assay: Growth of bacterial microflora on treated barley seeds; assay type: cell-based; settings: all studied doses
Protocol: (§1) During phytopathological analyses of agricultural crops, the species composition of fungal and bacterial microflora was established. Laboratory studies were carried out on two nutrient media potato-agar (ingredients: potatoes—200 g; agar-agar—20 g; distilled water—1000 mL.) and potato-dextrose agar (ingredients: potatoes—200 g;dextrose—20 g; agar-agar—20 g; distilled water—1000 mL), according to the guidelines.
(§2) When evaluating the effectiveness of treatment of wheat, alfalfa, barley, rice, and sorghum seeds as fungicidal and bactericidal agents with preparation compounds at concentrations of 10, 20, and 40 mmol, their effect on the suppression of seed infection was evaluated.

BDF1 mice = assay: Acute toxicity, single intraperitoneal administration; assay type: in vivo
Protocol: To determine LD50, a curve of increasing toxicity was built with increasing dose, based on which the following parameters were additionally determined: MTD, LD16, LD84 and LD100.
In the experiment, clinically healthy animals were used, which were kept in the same conditions with a 12-h light and free access to water and food. Each experimental group included six animals. […] Control animals received 0.9% NaCl solution. Animals were monitored continuously for 4 h on the first day after administration of the test compounds. […] Calculation of toxic doses was performed using probit analysis.

[2] = test system: Hek 293 (human embryonic kidneys); assay: Cell viability, MTT test, normal cell line; assay type: cell-based; settings: read-out: IC50 (concentration causing 50% inhibition of cell population growth)
sorghum seeds = assay: Pre-sowing seed treatment, sowing qualities of sorghum seeds; assay type: in vivo; settings: for germination energy: control 52.3; for laboratory germination: control 57
wheat seeds = assay: Pre-sowing seed treatment, sowing qualities of wheat seeds; assay type: in vivo; settings: for germination energy: control 82; for laboratory germination: control 85.7
[3] = test system: bacterial microflora on rice seeds; assay: Growth of bacterial microflora on treated rice seeds; assay type: cell-based
Protocol: as §1, §2

[4] = single intraperitoneal administration, doses given in mg/kg, probit analysis

With O=[N+]([O-])c1c(Cl)cc2c(no[n+]2[O-])c1NCCCN1CCOCC1 [4e, 6-chloro-4-(3-(morpholino-4-ium)propylamino)-5-nitrobenzo[c][1,2,5]oxadiazole 1-oxide chloride] the “effect on bacterial microflora” value [1] was “slight suppression of the bacterial microflora”, the “toxicity class from acute toxicity study” value (BDF1 mice; single i.p.) was “highly toxic” and the “Body Weight” value (BDF1 mice; single i.p. 10 mg/kg, 0 Day, control 21.55 ± 0.28) was 20.25 ± 0.39 g. The “Body Weight” value (BDF1 mice; single i.p. 10 mg/kg, 1 Day, control 21.43 ± 0.56) was 20.39 ± 0.47 g, the “Body Weight” value (BDF1 mice; single i.p. 10 mg/kg, 2 Days, control 21.67 ± 0.77) was 20.51 ± 0.40 g and the “Body Weight” value (BDF1 mice; single i.p. 10 mg/kg, 3 Days, control 21.99 ± 0.79) was 20.88 ± 0.31 g. The “Body Weight” value (BDF1 mice; single i.p. 10 mg/kg, 7 Days, control 22.80 ± 0.44) was 21.58 ± 0.51 g, the “Body Weight” value (BDF1 mice; single i.p. 10 mg/kg, 14 Days, control 23.96 ± 0.68) was 22.12 ± 0.62 g and the “Body Weight” value (BDF1 mice; single i.p. 15 mg/kg, 0 Day, control 21.55 ± 0.28) was 21.48 ± 0.47 g. The “Body Weight” value (BDF1 mice; single i.p. 15 mg/kg, 1 Day, control 21.43 ± 0.56) was 21.45 ± 0.51 g, the “Body Weight” value (BDF1 mice; single i.p. 15 mg/kg, 2 Days, control 21.67 ± 0.77) was 21.56 ± 0.49 g and the “Body Weight” value (BDF1 mice; single i.p. 15 mg/kg, 3 Days, control 21.99 ± 0.79) was 21.62 ± 0.59 g. The “Body Weight” value (BDF1 mice; single i.p. 15 mg/kg, 7 Days, control 22.80 ± 0.44) was 22.02 ± 0.47 g, the “Body Weight” value (BDF1 mice; single i.p. 15 mg/kg, 14 Days, control 23.96 ± 0.68) was 22.66 ± 0.38 g and the “Body Weight” value (BDF1 mice; single i.p. 20 mg/kg, 0 Day, control 21.55 ± 0.28) was 21.45 ± 0.52 g. For the same compound, the “Body Weight” value (BDF1 mice; single i.p. 20 mg/kg, 1 Day, control 21.43 ± 0.56) was 21.44 ± 0.71 g, the “Body Weight” value (BDF1 mice; single i.p. 20 mg/kg, 2 Days, control 21.67 ± 0.77) was 21.88 ± 0.81 g and the “Body Weight” value (BDF1 mice; single i.p. 20 mg/kg, 3 Days, control 21.99 ± 0.79) was 22.02 ± 0.74 g. For the same compound, the “Body Weight” value (BDF1 mice; single i.p. 20 mg/kg, 7 Days, control 22.80 ± 0.44) was 22.74 ± 0.58 g, the “Body Weight” value (BDF1 mice; single i.p. 20 mg/kg, 14 Days, control 23.96 ± 0.68) was 23.01 ± 0.65 g and the “Body Weight” value (BDF1 mice; single i.p. 25 mg/kg, 0 Day, control 21.55 ± 0.28) was 22.27 ± 0.29 g. For the same compound, the “Body Weight” value (BDF1 mice; single i.p. 25 mg/kg, 1 Day, control 21.43 ± 0.56) was 21.98 g, the “Body Weight” value (BDF1 mice; single i.p. 25 mg/kg, 2 Days, control 21.67 ± 0.77) was 21.81 g and the “Body Weight” value (BDF1 mice; single i.p. 25 mg/kg, 3 Days, control 21.99 ± 0.79) was 21.89 g. For the same compound, the “Body Weight” value (BDF1 mice; single i.p. 25 mg/kg, 7 Days, control 22.80 ± 0.44) was 22.15 g, the “Body Weight” value (BDF1 mice; single i.p. 25 mg/kg, 14 Days, control 23.96 ± 0.68) was 22.74 g and the “Body Weight” value (BDF1 mice; single i.p. 30 mg/kg, 0 Day, control 21.55 ± 0.28) was 21.92 ± 0.13 g. The “time after administration at which death of animals began” value (BDF1 mice; single i.p., doses of 15–30 mg/kg) was 5 to 30 min, the LD100 (BDF1 mice; single intraperitoneal administration, doses given in mg/kg) was 30 and the LD16 (BDF1 mice; [4]) was 18.2. The LD84 (BDF1 mice; [4]) was 24.6, the IC50 ([2]; HEK293, 24 h) was 99 ± 2.09 µM and the IC50 ([2]; HEK293, 72 h) was 86.5 ± 5.75 µM. The germination energy (sorghum seeds; 10 mmol) was 33.3%, the laboratory germination (sorghum seeds; 10 mmol) was 63.3% and the germination energy (sorghum seeds; 20 mmol) was 50.5%. It also gave a laboratory germination (sorghum seeds; 20 mmol) of 56%, a germination energy (sorghum seeds; 40 mmol) of 50.5% and a laboratory germination (sorghum seeds; 40 mmol) of 52.5%. For the same compound, the germination energy (wheat seeds; 10 mmol) was 33.3%, the laboratory germination (wheat seeds; 10 mmol) was 42.8% and the “sowing qualities of seeds compared with control” value (wheat seeds; 20 mmol) was “higher than in the case of controls”. The germination energy (wheat seeds; 20 mmol) was 97%, the laboratory germination (wheat seeds; 20 mmol) was 97.5% and the “sowing qualities of seeds compared with control” value (wheat seeds; 40 mmol) was “higher than in the case of controls”. For the same compound, the germination energy (wheat seeds; 40 mmol) was 98%, the laboratory germination (wheat seeds; 40 mmol) was 99% and the “effect on bacterial microflora” value ([3]; 10 mmol) was “positive effect on the suppression of bacterial microflora”. For the same compound, the “effect on bacterial microflora” value ([3]; 20 mmol) was “positive effect on the suppression of bacterial microflora”.
